Measured values as given in patent US7297353B2, “Use of anemonin for treating aseptic inflammations” (priority 2000, dated 2007).
Entries after “also recorded” stand apart in the source; their conditions may differ. Like-named read-outs stand apart in the source and are kept apart here.

What was measured:
[1] = test system: carrageenan-induced paw edema; assay: Acute hind paw edema of rats induced by carrageenan; assay type: in vivo
Protocol: The animals were injected subcutaneously with carrageenan (10 μl of 1% solution in saline) into the right paw. Anti-inflammatory properties of external anemonin were studied by applying with various liniment solution of anemonin (0.125, 0.5, 2 mg/ml, 0.5 ml) for 2 h immediately after administration of carrageenan. The rats of control group were treated with the same volume of solvent (25% ethanol). The paw volumes of rats were measured at 0, 2 h, 3 h, 4 h, 5 h, 6 h after injection of carrageenan. The paw edema was represented by subtracting the volume of the untreated same paw from that of the treated paw.

[2] = test system: murine spleens cells stimulated with ConA; assay: T-cell proliferation, spleen cells stimulated with ConA ([3H]-thymidine uptake); assay type: cell-based, ICR mice; conditions: for [^3H]-TDRincorparation(CPM × 10^−3): ConA 5 μg/ml, 48 hrs
Protocol: Fresh spleen cells were obtained from ICR mice (male, 7-9 weeks old), 5×10^5 of spleen cells were cultured in 96-well flat plates with […] of RPMI 1640 media containing 10% FBS, 100 U/ml penicillin and 100 μg/ml streptomyin in a humidified, 37° C., 5% CO2 incubator for 48 hrs. The cultures were either unstimulated, or were stimulated with 5 μg/ml of ConA or 10 μg/ml of LPS to induce T cells or B cells proliferative responses respectively. The compounds were added in cultures with indicated concentrations to test their bioactivities. Profileration was assessed in terms of uptake of [^3H]-thymidine during 6-12 hours pulsing with 20 kBq [^3H]-thymidine/well, then the cells were harvested by a Basic 96 harvester, and counted in a 1540 MicroBeta Trilux (PerkinElmer Life Sciences).

[3] = test system: lymphocytes from the whole spleen of ICR mice; assay: Effect on survival rate of lymphocytes (MTT); assay type: cell-based; conditions: for MTT Average of OD values: 48-hour culture
Protocol: 5.1.1. Mice were sacrificed by removing spondyle, spleen was cut off and then ground to obtain single cell suspension. After erythrocytes were got rid of the remained cells were diluted to […] with RPMI-1640 culture solution containing 10% fetal bovine serum. In addition, all these performances must be sterile.
5.1.2. 200 μl solution in total volume (including 100 μl the cell suspension, 50 μl sample and 50 μl culture solution containing 10% fetal bovine serum) was dispensed on 96-well plate. 100 μl the cell suspension and 100 μl culture solution (200 μl in total volume) were added as negative control.
5.1.3. The cell was cultured at 37° C. and under 5% CO2 in incubator for 48 hours, and added MTT to the plate at […] 6 to 7 hours before the end of culture.
5.1.4. 100 μl of supernatant was sucked out when the culture was ended, and then lytic solution was added at 100 μl/well. The plates were kept in incubator for 6 to 7 hours. The survival rate was calculated according to the OD value (at 570 nm) measured by microplate reader.
Effect of different concentrations of Anemonin on survival rate of lymphocytes were determined, said lymphocytes were from the whole spleen of ICR mice after 48-hour culture.

[4] = test system: T-lymphocytes from the whole spleen of mice; assay: ConA-induced responsive proliferation of T-lymphocytes ([3H] thymidine); assay type: cell-based; conditions: for Proliferation of T-lymphocytes ConA stimulation Average of CPM values: ConA at 51 μg/ml, 48 hours
Protocol: 5.2.1. Mice were sacrificed by removing spondyle, spleen was cut off in a sterile condition and then ground to obtain single cell suspension. After erythrocytes were got rid of the remained cells were diluted to […] with RPMI-1640 culture solution containing 10% fetal bovine serum.
5.2.2. 200 μl solution in total volume (including 100 μl the cell suspension, 50 μl sample and 50 μl ConA or LPS) was dispensed on 96-well plate.
50 μl culture solution containing 10% fetal bovine serum, instead of 50 μl sample, was added as negative control, in which the total volume was also 200 μl.
5.2.3. The cell was cultured at 37° C. and under 5% CO2 in incubator for 48 hours, and [^3H] thymidine (1.9×10^4 Bq) was added to the plate at 25 μl/well 12 hours before the end of culture.
5.2.4. The culture was continued. The plates were then stored at −20° C. in refrigeratory after the culture. The thawed cells were collected to fiberglass membrane (Nitrocellose membrane) with cell collector when detecting. After the addition of Scintillation solution, the quantity of [^3H] thymidine incorporated into DNA of cells was detected by Beta counter (MicroBeta Trilux, PerkinElmer LifeSciences). The proliferation of lymphocytes was indicated by cpm value.
Effect of the medicament on ConA-induced responsive proliferation of T-lymphocytes was examined, said T-lymphocytes were from the whole spleen of mice. ConA at 51 μg/ml final concentration was used as the stimulator to induce responsive proliferation of T-lymphocytes from the whole spleen of ICR homogenous mice (cultured in vitro for 48 hours).

O=C1C=CC2(CCC23C=CC(=O)O3)O1 (centres unmarked) [Anemonin, anemonin]
Paw edema ([1]; 0.125 mg/ml liniment, 2 h): 0.24 ± 0.06 mL
Paw edema ([1]; 0.125 mg/ml liniment, 3 h): 0.20 ± 0.09 mL
Paw edema ([1]; 0.125 mg/ml liniment, 4 h): 0.33 ± 0.08 mL
Paw edema ([1]; 0.125 mg/ml liniment, 5 h): 0.36 ± 0.11 mL
Paw edema ([1]; 0.125 mg/ml liniment, 6 h): 0.39 ± 0.08 mL
Paw edema ([1]; 0.5 mg/ml liniment, 2 h): 0.24 ± 0.13 mL
Paw edema ([1]; 0.5 mg/ml liniment, 3 h): 0.21 ± 0.08 mL
Paw edema ([1]; 0.5 mg/ml liniment, 4 h): 0.25 ± 0.07 mL
Paw edema ([1]; 0.5 mg/ml liniment, 5 h): 0.35 ± 0.10 mL
Paw edema ([1]; 0.5 mg/ml liniment, 6 h): 0.40 ± 0.08 mL
Paw edema ([1]; 2 mg/ml liniment, 0.5 ml for 2 h, 2 h after carrageenan): 0.25 ± 0.08 mL
Paw edema ([1]; 2 mg/ml liniment, 3 h): 0.16 ± 0.08 mL
Paw edema ([1]; 2 mg/ml liniment, 4 h): 0.25 ± 0.07 mL
Paw edema ([1]; 2 mg/ml liniment, 5 h): 0.30 ± 0.06 mL
Paw edema ([1]; 2 mg/ml liniment, 6 h): 0.31 ± 0.10 mL
paw edema development ([1]; liniment 0.125, 0.5, 2 mg/ml, dose-dependent manner): significantly reduced
[^3H]-TDRincorparation(CPM × 10^−3) ([2]; 0.001 μg/ml): 30.1 ± 1.31 CPM × 10^−3
[^3H]-TDRincorparation(CPM × 10^−3) ([2]; 0.01 μg/ml): 33.2 ± 2.56 CPM × 10^−3
[^3H]-TDRincorparation(CPM × 10^−3) ([2]; 0.1 μg/ml): 30.9 ± 0.78 CPM × 10^−3
[^3H]-TDRincorparation(CPM × 10^−3) ([2]; 1 μg/ml): 21.7 ± 0.53 CPM × 10^−3
[^3H]-TDRincorparation(CPM × 10^−3) ([2]; 10 μg/ml): 0.03 ± 0.01 CPM × 10^−3
[^3H]-TDRincorparation(CPM × 10^−3) ([2]; 100 μg/ml): 0.02 ± 0.01 CPM × 10^−3
T-cell proliferation ([2]; 1-100 μg/ml): significantly inhibited
MTT Average of OD values ([3]; 0.001 μg/ml, Table B-2): 0.087
Decrease of survival rate of lymphocytes Yes/No ([3]; 0.001 μg/ml, Table B-2): Yes
MTT Average of OD values ([3]; 0.01 μg/ml, Table B-2): 0.068
Decrease of survival rate of lymphocytes Yes/No ([3]; 0.01 μg/ml, Table B-2): Yes
MTT Average of OD values ([3]; 0.1 μg/ml, Table B-2): 0.061
Decrease of survival rate of lymphocytes Yes/No ([3]; 0.1 μg/ml, Table B-2): Yes
MTT Average of OD values ([3]; 1 μg/ml, Table B-1): 0.052
MTT Average of OD values ([3]; 1 μg/ml, Table B-2): 0.002
Decrease of survival rate of lymphocytes Yes/No ([3]; 1 μg/ml, Table B-1): Yes
Decrease of survival rate of lymphocytes Yes/No ([3]; 1 μg/ml, Table B-2): Yes
MTT Average of OD values ([3]; 10 μg/ml, Table B-1): 0.002
MTT Average of OD values ([3]; 10 μg/ml, Table B-2): 0.008
Decrease of survival rate of lymphocytes Yes/No ([3]; 10 μg/ml, Table B-1): Yes
Decrease of survival rate of lymphocytes Yes/No ([3]; 10 μg/ml, Table B-2): Yes
MTT Average of OD values ([3]; 100 μg/ml, Table B-1): 0.163
MTT Average of OD values ([3]; 100 μg/ml, Table B-2): 0.145
inhibition in survival rate of the lymphocytes ([3]; final concentration range from 0.001 μg/ml to 10 μg/ml): obvious inhibition; also recorded: obvious effect
Proliferation of T-lymphocytes ConA stimulation Average of CPM values ([4]; 0.001 μg/ml, Table B-4): 15466 CPM
Proliferation of T-lymphocytes ConA stimulation Average of CPM values ([4]; 0.01 μg/ml, Table B-4): 19386 CPM
Proliferation of T-lymphocytes ConA stimulation Average of CPM values ([4]; 0.1 μg/ml, Table B-4): 15284 CPM
Proliferation of T-lymphocytes ConA stimulation Average of CPM values ([4]; 1 μg/ml, Table B-3): 8650 CPM
Proliferation of T-lymphocytes ConA stimulation Average of CPM values ([4]; 1 μg/ml, Table B-4): 8438 CPM
Proliferation of T-lymphocytes ConA stimulation Average of CPM values ([4]; 10 μg/ml, Table B-3): 171 CPM
Proliferation of T-lymphocytes ConA stimulation Average of CPM values ([4]; 10 μg/ml, Table B-4): 46 CPM
Proliferation of T-lymphocytes ConA stimulation Average of CPM values ([4]; 100 μg/ml, Table B-3): 160 CPM
Proliferation of T-lymphocytes ConA stimulation Average of CPM values ([4]; 100 μg/ml, Table B-4): 155 CPM
inhibition at 0.001 µg/mL ([4]; Mus musculus, T-lymphocyte, 0.001 μg/ml, ConA stimulation, Table B-4, read-out: General assess of activity Enhancement/Inhibition): 11%
inhibition at 0.01 µg/mL ([4]; Mus musculus, T-lymphocyte, 0.01 μg/ml, ConA stimulation, Table B-4, read-out: General assess of activity Enhancement/Inhibition): -11%
inhibition at 0.1 µg/mL ([4]; Mus musculus, T-lymphocyte, 0.1 μg/ml, ConA stimulation, Table B-4, read-out: General assess of activity Enhancement/Inhibition): 13%
inhibition at 1 µg/mL ([4]; Mus musculus, T-lymphocyte, 1 μg/ml, ConA stimulation, Table B-3, read-out: General assess of activity Enhancement/Inhibition): 47%
inhibition at 1 µg/mL ([4]; Mus musculus, T-lymphocyte, 1 μg/ml, ConA stimulation, Table B-4, read-out: General assess of activity Enhancement/Inhibition): 52%
inhibition at 10 µg/mL ([4]; Mus musculus, T-lymphocyte, 10 μg/ml, ConA stimulation, Table B-3, read-out: General assess of activity Enhancement/Inhibition): 99%
inhibition at 10 µg/mL ([4]; Mus musculus, T-lymphocyte, 10 μg/ml, ConA stimulation, Table B-4, read-out: General assess of activity Enhancement/Inhibition): 100%
inhibition at 100 µg/mL ([4]; Mus musculus, T-lymphocyte, 100 μg/ml, ConA stimulation, Table B-3, read-out: General assess of activity Enhancement/Inhibition): 99%
inhibition at 100 µg/mL ([4]; Mus musculus, T-lymphocyte, 100 μg/ml, ConA stimulation, Table B-4, read-out: General assess of activity Enhancement/Inhibition): 99%
inhibition of ConA-induced responsive proliferation of lymphocytes ([4]; final concentration range from 0.1 μg/ml to 100 μg/ml): remarkably inhibited; also recorded: sharply inhibited
